Experimental data reported in patent publication EP0317728A2, “Use of 9-(beta-D-arabinofuranosyl) adenine derivatives for the preparation of pharmaceutical compositions for the treatment of aids” (WARNER-LAMBERT COMPANY, priority 1987, dated 1989).

Legend:
Format in all cases: cell-based
[1] = test system: HTLV-III/LAV; test: Inhibition of cytopathic effect (syncytial giant cell formation) in HTLV-III/LAV infected H9 cells; details: cytopathic effect (syncytial giant cell formation) on day 7 post infection 50% that in drug-free control cultures, read-out: CPE* 50% Inhibitory Concentrations
Experimental: (§1) The antiviral activity of the compounds of the present invention against the HTLV-III/LAV virus was evaluated by determining the degree of inhibition of cytopathic effect (CPE) and reverse transcriptase (RT) activity of the drug in a subline of H9 cells at various concentrations.
(§2) HTLV-III/LAV inoculum was standardized for reverse transcriptase (RT) activity using purified avian myeloblastosis viral RT (BRL Labs, Gaithersberg, MD) and used to infect polybrene treated H9 cells at 0.02 RT units of HTLV-III/LAV per 2 x 10⁶ cells. The virus was adsorbed for two hours at 37°C and then the cells were washed and resuspended in RPMI-10% fetal bovine serum at 2 x 10⁵ cells/ml and dispersed in 1-ml aliquots into 24-well plates.
Syncytial giant cell formation appeared at 5-6 days post infection, and this cytopathic effect (CPE) was quantitatively measured by dispersing 0.1-ml aliquots into 0.1-ml portions of absolute methanol and enumerating the giant cells microscopically. The inhibition of cytopathic effect by treatment with representative compounds of the present invention is shown in the table, together with the inhibitory effect on reverse transcriptase activity.

[2] = test system: HTLV-III/LAV; test: Inhibition of reverse transcriptase activity in culture medium of HTLV-III/LAV infected H9 cells; details: reverse transcriptase in the culture medium on day 10 post infection 50% that in drug-free control cultures, read-out: RT** 50% Inhibitory Concentrations
Experimental: as §1, §2
Reverse transcriptase activity (RT) was measured using 1-ml culture aliquots which were clarified at 600 xg for 30 minutes, precipitated in 10% polyethylene glycol-0.13 M NaCl at 4°C for eighteen hours, and centrifuged at 600 xg for sixty minutes. The pellet was dissolved in glycerol-Tris buffer (50% glycerol, 25 mM Tris HCl, pH 7.5, 5 mM dithiothreitol, 15 mM KCl, 0.025% Triton-X, and 0.25 mM EDTA). […] Background counts were determined using poly dA oligo dT₁₂₋₁₈ as template and subtracted from the poly rA dT primer to determine the thymidine incorporation specifically due to reverse transcriptase activity. […]

[3] = test system: uninfected H9 cells; details: human, 6 day
Experimental: as §1

| Structure (SMILES) | IC50 ([1]; Human immunodeficiency virus 1, 168 h) [µM] | IC50 ([2]; Human immunodeficiency virus 1, 240 h) [µM] | Cell Number*** 50% Inhibitory Concentrations [3] [µM] | IC50 [1] [µM] | IC50 [2] [µM] |
| --- | --- | --- | --- | --- | --- |
| Nc1ncnc2c1ncn2[C@@H]1O[C@H](CO)[C@@H](O)[C@@H]1O [9-(β-D-arabinofuranosyl)adenine] | 7 | 7 | >100 |  |  |
| Nc1ncnc2c1ncn2[C@@H]1O[C@H](COP(=O)(O)O)[C@@H](O)[C@@H]1O [9-(β-D-arabinofuranosyl)adenine, 5′-phosphate] |  |  |  | 18 | 11 |
